Measurements from US20080227801A1, “Pharmaceutical Compositions Containing Erythrina Mulungu Derivatives, Processes for their Production and Uses Thereof” (priority 2005, published 2008).
Where “and” joins values, the source holds several entries; their conditions need not be identical. Identical values can stand only once. Entries after “also recorded” stand apart in the source; their conditions may differ.

Columns and labels:
Format in all cases: in vivo, Swiss mice
house mouse [1] = assay: Clear-dark (light/dark) transition model; conditions: for Number of transitions between two compartments / Time spent in illuminated compartment: acute, mean ± EPM; for Effect on time spent in illuminated compartment (in words): versus control; for Anxiolytic effect in clear-dark model transition (in words): oral via, doses of 3 and 10 mg/kg
house mice = assay: Labyrinth in high T (elevated T maze) test; set-up: key to Escape: latency in seconds (maximum 300 s); conditions: for Escape / Inhibitory avoidance E1 / Inhibitory avoidance LB (basal latency) / Inhibitory avoidance E2 / Inhibitory avoidance E3 / Inhibitory avoidance E4: acute, mean ± EPM; for Anxiolytic effect in Labyrinth in high T (in words): 3 and 10 mg/kg, oral via
Method: Swiss mice weighing 25-35 g from the central animal laboratory of the Sao Paulo State University (UNESP/Araraquara) were used.
Accordingly, lyophilized hydroalcoholic extract (50, 100, 200 and 400 mg/kg) was used, in addition to F2 (3, 6, 10, 17 and 30 mg/kg) and the alkaloids erythrartine, erythravine and 11-OH-erythravine (3 and 10 mg/kg), administered via oral intake by gavage. The standard drug used was Diazepam (DZP) in a dose of 2 mg/kg (via intraperitoneal, i.p).
The Labyrinth in high T is made with transparent glass walls and wooden floor and consists of a closed arm (30×5×15 cm) perpendicularly linked to two open arms (30×5×0.25 cm), raised at 38.5 cm above the floor by a wooden support. In this test, five consecutive measures of inhibitory avoidance were performed (basal latency, avoidances 1, 2, 3 and 4) and one measure of escape from the open arms, with intervals of 30 seconds between each attempt. In the avoidance measures, the animals were placed in the distal section of the closed arm and the exit latency of this arm, on all four paws, towards the open arm was timed. In the escape measure, the animals were placed in the extremity of the right-hand open arm and the departure time from this arm was measured. The animals' maximum length of stay in the arms of the maze during these measures was 300 seconds. The apparatus was cleaned with ethanol 20% after testing each animal.
The results obtained from the Labyrinth in high T submitted to a two-way analysis of variance (ANOVA), with treatment being an independent factor and attempts being a dependent factor.

house mouse [2] = assay: Locomotion activity test in the arena
From the text: In order to avoid false positives or negatives, immediately after testing in the elevated T maze, the animals were submitted to the locomotive activity test in the arena.
The apparatus consists of a white polypropylene box with a rectangular base (40×48 cm), surrounded by 30 cm high walls. The floor is subdivided into 30 squares (8×8 cm).
In this test, the animals were placed in the center of the box and their activity was video recorded for five minutes, for subsequent analysis of the number of crossings of the quadrant areas and number of stretch-attend postures (WALSH and CUMMINS, 1976).
The results obtained with the arena were submitted to a one-way ANOVA followed by the Duncan post hoc test.

[3] = 2 mg/kg i.p., acute, five minutes, mean ± EPM
[4] = 3 and 10 mg/kg oral, one-way ANOVA

CN1C(=O)CN=C(c2ccccc2)c2cc(Cl)ccc21 [DZP, Diazepam, reference compound]
Number of transitions between two compartments (house mouse [1]; 2 mg/kg i.p.): 20.10 ± 2.93 and 13.92 ± 1.34 and 17.42 ± 2.40 | Time spent in illuminated compartment (house mouse [1]; 2 mg/kg i.p.): 144.20 ± 17.52 and 130.00 ± 16.76 and 140.67 ± 18.59 | Effect on time spent in illuminated compartment (in words) (house mouse [1]; DZP 2 mg/kg): expressively greater; also recorded: increased expressively; also recorded: observed only for the animals group treated with DZP | Escape (house mice; 2 mg/kg i.p.): 19.0 ± 3.2 and 28.4 ± 7.1 and 27.1 ± 4.6 | Inhibitory avoidance E1 (house mice; 2 mg/kg i.p.): 15.3 ± 3.8 and 19.1 ± 4.0 and 11.4 ± 1.4 | Inhibitory avoidance LB (basal latency) (house mice; 2 mg/kg i.p.): 24.6 ± 4.1 and 25.4 ± 4.1 and 25.6 ± 5.9 | Mixings (house mouse [2]; [3]): 167.4 ± 23.6 and 169.11 ± 33.2 | Raisings (house mouse [2]; [3]): 27.33 ± 2.3 and 21.11 ± 6.7

COc1cc2c(cc1OC)[C@]13C[C@@H](O)C=CC1=CCN3C[C@H]2O [11-OH, 11-hydroxy-erythravine]
Number of transitions between two compartments (house mouse [1]; 3 mg/kg oral): 22.67 ± 2.66 | Time spent in illuminated compartment (house mouse [1]; 3 mg/kg oral): 98.67 ± 13.35 | Number of transitions between two compartments (house mouse [1]; 10 mg/kg oral): 14.00 ± 1.93 | Time spent in illuminated compartment (house mouse [1]; 10 mg/kg oral): 127.22 ± 21.83 | Effect on number of transitions between two compartments (in words) (house mouse [1]; dose of 3 mg/kg, P<0.05, listed as 11-hidroxi-erhytravine, 3 mg/kg): increased the transitions | Effect on number of transitions between two compartments (in words) (house mouse [1]; dose of 3 mg/kg, P<0.05, listed as 11-hidroxi-erythravine, 3 mg/kg): increased | Effect on time spent in illuminated compartment (in words) (house mouse [1]; dose of 10 mg/kg, listed as 11-hidroxi-erhytravine, 10 mg/kg): anxiolytic effect | Effect on time spent in illuminated compartment (in words) (house mouse [1]; dose of 10 mg/kg, listed as 11-hidroxi-erythravine, 10 mg/kg): increased expressively | Anxiolytic effect in clear-dark model transition (in words) (house mouse [1]): anxiolytic effect | Escape (house mice; 3 mg/kg oral): 21.5 ± 3.7 | Inhibitory avoidance E1 (house mice; 3 mg/kg oral): 41.8 ± 14.2 | Inhibitory avoidance E2 (house mice; 3 mg/kg oral): 96.0 ± 34.4 | Inhibitory avoidance E3 (house mice; 3 mg/kg oral): 132.3 ± 39.7 | Inhibitory avoidance E4 (house mice; 3 mg/kg oral): 194.4 ± 39.5 | Inhibitory avoidance LB (basal latency) (house mice; 3 mg/kg oral): 30.7 ± 5.8 | Escape (house mice; 10 mg/kg oral): 26.8 ± 4.8 | Inhibitory avoidance E1 (house mice; 10 mg/kg oral): 30.0 ± 6.1 | Inhibitory avoidance E2 (house mice; 10 mg/kg oral): 54.0 ± 21.1 | Inhibitory avoidance E3 (house mice; 10 mg/kg oral): 66.6 ± 30.3 | Inhibitory avoidance E4 (house mice; 10 mg/kg oral): 94.8 ± 31.7 | Inhibitory avoidance LB (basal latency) (house mice; 10 mg/kg oral): 22.6 ± 3.5 | Anxiolytic effect in Labyrinth in high T (in words) (house mice): anxiolytic effect | Response on the locomotion activity test at the arena (in words) (house mouse [2]; 3 mg/kg): did not have an increase of the response

COc1cc2c(cc1OC)[C@]13C[C@@H](OC)C=CC1=CCN3C[C@H]2O [ERIT, erythrartine]
Number of transitions between two compartments (house mouse [1]; 3 mg/kg oral): 13.00 ± 1.56 | Time spent in illuminated compartment (house mouse [1]; 3 mg/kg oral): 67.67 ± 8.33 | Number of transitions between two compartments (house mouse [1]; 10 mg/kg oral): 14.25 ± 1.59 | Time spent in illuminated compartment (house mouse [1]; 10 mg/kg oral): 83.42 ± 14.17 | Effect on number of transitions between two compartments (in words) (house mouse [1]; [4]): did not show signified effect | Anxiolytic effect in Labyrinth in high T (in words) (house mice): anxiolytic effect

COc1cc2c(cc1OC)[C@]13C[C@@H](O)C=CC1=CCN3CC2 [ERI, erythravine]
Number of transitions between two compartments (house mouse [1]; 3 mg/kg oral): 19.70 ± 2.96 | Time spent in illuminated compartment (house mouse [1]; 3 mg/kg oral): 115.40 ± 18.58 | Number of transitions between two compartments (house mouse [1]; 10 mg/kg oral): 19.80 ± 1.32 | Time spent in illuminated compartment (house mouse [1]; 10 mg/kg oral): 112.00 ± 10.95 | Effect on number of transitions between two compartments (in words) (house mouse [1]; [4]): did not show significant differences between groups | Effect on time spent in illuminated compartment (in words) (house mouse [1]; oral doses of 3 mg/kg and 10 mg/kg): expressively greater; also recorded: anxiolytic effect | Anxiolytic effect in clear-dark model transition (in words) (house mouse [1]): anxiolytic effect | Anxiolytic effect in Labyrinth in high T (in words) (house mice): anxiolytic effect
